Source: US20210310040A1, “SUSCEPTIBILITY AND RESISTANCE OF MICROORGANISMS” (priority 2017, published 2021)
≈ marks a conversion by molar mass, not a printed value.

Experiments:
ATCC 25922 (Pan-S) = experiment: Susceptibility by perturbation of VOCs, single indicator response after addition of antibiotic; type: cell-based, E. coli
Description: (§1) However, it has been discovered that detection of changes in VOC output of microorganism—in addition to changes in the number of microorganisms—can be detected by the sensor 808 after application of antibiotics. The change in the sensor 808 response can also be correlated to susceptibility of the microorganism to antibiotics. For instance, it has been discovered that after application of antibiotics, certain sensors decrease or show less response at certain concentrations. This change in VOC output can be correlated to the resistance or susceptibility of the microorganisms in the sample to the antibiotic or other substance introduced. In other examples, a change in compound output that remain in solution (not limited to VOCs) may be correlated to a susceptibility of the microorganisms.
For instance, FIG. 48 illustrates an example of the response of the red spectrum of a single indicator (e.g. an indicator containing ZnTPP and Bromophenol Blue) on the sensor 808 in the presence of a sample. As shown, the antibiotic is added at 0.5 hours—in the example of the susceptible microorganism ATCC 25922 (Pan-S), the indicator red component drops off dramatically. The results can be noticed almost a half an hour to an hour after adding the antibiotic—far faster than to notice a general decline in emission of VOCs due to cell death or lack of growth of microorganisms. […]

E. coli AR 84 (ESBL) = experiment: as above; type: cell-based; settings: at all concentrations of Ampicillin
Description: as §1
In the resistant strain illustrated in FIG. 48, AR 84 (ESBL), the antibiotic is added at the same time, but the red component of the sensor response continues to increase over time. […] Accordingly, in this embodiment, the sensor 808 response of a single indicator may be monitored. Changes in the slope of the indicator response over time, or decreases in the indicator may be monitored to determine when there is potentially a susceptible organism. […]

K. pneumoniae IS-007 [1] = experiment: Colorimetric sensor array susceptibility test on solid growth media; type: cell-based, Klebsiella pneumoniae
Description: (§2) To detect and identify a microorganism by species and/or strain, a sample including the microorganism is placed in a container including culture medium and a colorimetric array, and the temporal response of the sensors to the metabolic products of the microorganism is monitored. Susceptibility can be assessed by inoculating a growth medium including a substance (e.g., an antibiotic) with a microorganism and monitoring the response of the sensors while also monitoring the response of a control (e.g., no antibiotic).
(§3) FIG. 8 depicts an embodiment of a container 800 configured for use to assess a susceptibility or resistance of microorganisms. Container 800 includes base 802 and lid 804, with wells 806 positioned in base 802 opposite colorimetric sensor arrays 808 on lid 804. Microorganisms may be placed in contact with growth medium (e.g., a solid or liquid growth medium) in wells 806. A substance (e.g., a drug such as an antibiotic) may be added to the growth medium. In one example, rows and columns of wells 802 in container 800 may be used for different microorganisms, different substances (e.g., drugs including antibiotics that may potentially kill the microorganisms), and/or different concentrations of substances. After samples are loaded on wells 802, a lid 804 may be positioned over base 802, such that each colorimetric sensor array 808 is proximate a well 806 and in gaseous (or liquid) communication. In other embodiments, various other configurations could be utilized to bring the gas and volatile organic compounds emitted from the sample into gaseous proximity of the sensor array 808 at sufficient gaseous concentrations. The response of the sensor arrays 808 recorded by various detectors may then be assessed in order to determine a susceptibility or resistance of the various antibiotics or substances cultured with the sample. Susceptibility may be assessed via temporal response of the sensors in colorimetric sensor arrays 808 as described herein. Container 800 can be positioned in an apparatus (e.g., apparatus 700) for automated assessment of susceptibility and/or resistance.
(§4) FIGS. 9A-B show susceptibility of K. pneumoniae strains obtained in 6 hours in Muller-Hinton agar (x axis indicates time in hours). Susceptibility is indicated by a lack of metabolic products compared to controls (no antibiotic). […] FIGS. 10A-C show susceptibility of S. aureus strains obtained in 6 hours in Muller-Hinton agar.
(§5) In another susceptibility test, three strains of K. pneumoniae were inoculated onto the solid growth media with no antibiotic (control), piperacillin/tazobactam (PIP/TAZO) at concentrations of 16 ug/ml and 4 ug/ml, Cefepime at 8 ug/ml and Meropenem at 1 ug/ml. […] K. pneumoniae IS-020 was susceptible to all 3 antibiotics in agreement with known susceptibility information that this strain is susceptible to PIP/Tazo at <4 ug/ml, Cefepime <1 ug/ml and Meropenem at <0.25 ug/ml). K. pneumoniae IS-133 is known to be resistant at concentrations of PIP/Tazo below 128 ug/ml, Cefepime below 64 ug/ml and Meropenem below 16 ug/ml.

K. pneumoniae IS-020 [2] = experiment: as above; type: cell-based, Klebsiella pneumoniae
Description: as §2, §3, §4, §5

K. pneumoniae IS-007 [3] = settings: cited from earlier work
K. pneumoniae IS-020 [4] = settings: cited from earlier work
K. pneumoniae IS-133 = settings: cited from earlier work
S. aureus 29213 (MSSA) = experiment: Susceptibility by perturbation of VOCs, single indicator response with antibiotic; type: cell-based; settings: Staphylococcus aureus, observed in about 2.5 hours, FIG. 52
Description: as §1
FIG. 52 illustrates two graphs showing the MIC observed for two different antibiotics to S. aureus 29213 (MSSA). The graph on the left portion of FIG. 52 illustrates a MIC of 1 μg/ml to Cefoxitin and the graph on the right illustrations a MIC of 0.5 μg/ml of Vancomycin.

E. coli (AR85) = experiment: as above; type: cell-based; settings: Escherichia coli; observed after 2.5 hours, FIG. 50; read-out: minimum inhibitory concentration (MIC)
Description: as §1
FIG. 50 illustrates a graph showing the sensor response of a single sensor 808, dye or indicator to a sample of E. coli incubated in the presence of different concentrations of Ertapenem—a Carbapenem family of antibiotic. As illustrated, the single indicator can not only determine whether this strain of E. coli (AR85) is resistant to Ertapenem, but also the minimum inhibitory concentration (“MIC”). As illustrated, the minimum inhibitory concentration of 2 μg/ml is observed only after 2.5 hours. […]

S. aureus IS-120 [5] = experiment: Colorimetric sensor array susceptibility test on solid growth media; type: cell-based, Staphylococcus aureus
Description: as §2, §3, §4
(§6) In another susceptibility test, three strains of S. aureus were inoculated onto the solid growth media. […] S. aureus IS-124 was susceptible to both antibiotics in agreement with known susceptibility information that this strain is susceptible to Oxacillin and Vancomycin.

S. aureus IS-123 [6] = experiment: as above; type: cell-based, Staphylococcus aureus
Description: as §2, §3, §4, §6

S. aureus IS-124 [7] = experiment: as above; type: cell-based, Staphylococcus aureus
Description: as §2, §3, §4, §6

S. aureus IS-120 [8] = settings: cited from earlier work
S. aureus IS-123 [9] = settings: cited from earlier work
S. aureus IS-124 [10] = settings: cited from earlier work
[11] = PIP/TAZO at 16 ug/ml and 4 ug/ml

In the case of `CC1(C)S[C@@H]2[C@H](NC(=O)[C@H](N)c3ccccc3)C(=O)N2[C@H]1C(=O)O` [Ampicillin], the “sensor response of single indicator after addition of antibiotic (FIG. 49)” value (ATCC 25922 (Pan-S); Ampicillin at 0.5 mg/ml and 1.0 mg/ml) is reported as “same response”, the MIC (ATCC 25922 (Pan-S); Escherichia coli, ATCC25922, single sensor or indicator, FIG. 53) is reported as 1 to 8 µg/mL (≈ 2.86 to 22.9 µM) and the “sensor response of single indicator after addition of antibiotic (FIG. 49)” value (E. coli AR 84 (ESBL)) is reported as “decline in sensor response”.
In the case of `CO/N=C(\C(=O)N[C@@H]1C(=O)N2C(C(=O)[O-])=C(C[N+]3(C)CCCC3)CS[C@H]12)c1csc(N)n1` [Cefepime], the “susceptibility or resistance by sensor response compared to control” value (K. pneumoniae IS-007 [1]; Cefepime at 8 ug/ml) is given as “resistance”, the “susceptibility or resistance by sensor response compared to control” value (K. pneumoniae IS-020 [2]; Cefepime at 8 ug/ml) is given as “susceptible” and the “known susceptibility information: concentration at which strain is susceptible” value (K. pneumoniae IS-007 [3]) is given as < 0.25 µg/mL. For the same compound, the “known susceptibility information: concentration below which strain is resistant” value (K. pneumoniae IS-007 [3]) was “below 64 ug/ml”, the “known susceptibility information: concentration at which strain is susceptible” value (K. pneumoniae IS-020 [4]) was < 1 µg/mL and the “known to be resistant at concentrations below” value (from here on “known to be resistant”) (K. pneumoniae IS-133) was “below 64 ug/ml”.
For `CO[C@@]1(NC(=O)Cc2cccs2)C(=O)N2C(C(=O)O)=C(COC(N)=O)CS[C@@H]21` [Cefoxitin], the MIC (S. aureus 29213 (MSSA)) was 1 µg/mL (≈ 2.34 µM).
With `C[C@@H](O)[C@H]1C(=O)N2C(C(=O)O)=C(S[C@@H]3CN[C@H](C(=O)Nc4cccc(C(=O)O)c4)C3)[C@H](C)[C@H]12` [Ertapenem] the MIC (E. coli (AR85)) was 2 µg/mL (≈ 4.21 µM).
For `C[C@@H](O)[C@H]1C(=O)N2C(C(=O)O)=C(S[C@@H]3CN[C@H](C(=O)N(C)C)C3)[C@H](C)[C@H]12` [Meropenem], the “susceptibility or resistance by sensor response compared to control” value (K. pneumoniae IS-007 [1]; Meropenem at 1 ug/ml) is listed as “susceptibility”, the “susceptibility or resistance by sensor response compared to control” value (K. pneumoniae IS-020 [2]; Meropenem at 1 ug/ml) is listed as “susceptible” and the “known susceptibility information: concentration at which strain is susceptible” value (K. pneumoniae IS-020 [4]) is listed as < 0.25 µg/mL. The “known to be resistant” value (K. pneumoniae IS-133) was “below 16 ug/ml”.
With `Cc1onc(-c2ccccc2)c1C(=O)N[C@@H]1C(=O)N2[C@@H]1SC(C)(C)[C@@H]2C(=O)O` [Oxacillin] the “susceptibility or resistance by sensor response” value (S. aureus IS-120 [5]; Oxacillin at 2 ug/ml) was “resistance”, the “susceptibility or resistance by sensor response” value (S. aureus IS-123 [6]; Oxacillin at 2 ug/ml) was “resistance” and the “susceptibility or resistance by sensor response” value (S. aureus IS-124 [7]) was “susceptible”. The “known susceptibility information: concentration below which strain is resistant” value (S. aureus IS-120 [8]) was “below 4 ug/ml”, the “known susceptibility information: concentration below which strain is resistant” value (S. aureus IS-123 [9]) was “below 4 ug/ml” and the “known susceptibility information: susceptible or resistant” value (S. aureus IS-124 [10]) was “susceptible”.
For `CN[C@H](CC(C)C)C(=O)N[C@H]1C(=O)N[C@@H](CC(N)=O)C(=O)N[C@H]2C(=O)N[C@H]3C(=O)N[C@H](C(=O)N[C@H](C(=O)O)c4cc(O)cc(O)c4-c4cc3ccc4O)[C@H](O)c3ccc(c(Cl)c3)Oc3cc2cc(c3O[C@@H]2O[C@H](CO)[C@@H](O)[C@H](O)[C@H]2O[C@H]2C[C@](C)(N)[C@H](O)[C@H](C)O2)Oc2ccc(cc2Cl)[C@H]1O` [Vancomycin], the “susceptibility or resistance by sensor response” value (S. aureus IS-120 [5]; Vancomycin at 1-2 ug/ml) was “susceptibility”, the “susceptibility or resistance by sensor response” value (S. aureus IS-123 [6]; Vancomycin at 1-2 ug/ml) was “susceptibility” and the “susceptibility or resistance by sensor response” value (S. aureus IS-124 [7]) was “susceptible”. The “known susceptibility information: susceptible or resistant” value (S. aureus IS-120 [8]) was “susceptible”, the “known susceptibility information: susceptible or resistant” value (S. aureus IS-123 [9]) was “susceptible” and the “known susceptibility information: susceptible or resistant” value (S. aureus IS-124 [10]) was “susceptible”.
In the case of piperacillin/tazobactam [PIP/Tazo], the “susceptibility or resistance by sensor response compared to control” value (K. pneumoniae IS-007 [1]; [11]) is listed as “susceptibility”, the “susceptibility or resistance by sensor response compared to control” value (K. pneumoniae IS-020 [2]; [11]) is listed as “susceptible” and the “known susceptibility information: concentration at which strain is susceptible” value (K. pneumoniae IS-007 [3]) is listed as 4 µg/mL. For the same compound, the “known susceptibility information: concentration at which strain is susceptible” value (K. pneumoniae IS-020 [4]) was < 4 µg/mL and the “known to be resistant” value (K. pneumoniae IS-133) was “below 128 ug/ml”.
